Source: ChEMBL document CHEMBL5727898, “Compounds and their use for reducing uric acid levels” (2020)

Molecular target: Xanthine dehydrogenase/oxidase (Homo sapiens, UniProt P47989)
Assay: xanthine oxidase activity: Xanthine oxidase inhibition was determined using a standard fluorescence-based assay for xanthine oxidase activity (McHale A, Grimes H, Coughlan M P: Int J Biochem. 10:317-9, 1979) with minor variations. […] Experiments on test compounds were performed in triplicate in multi-well plates using 10 concentrations of each compound that ranged over a 3-fold dilution.

Chain of Xanthine dehydrogenase/oxidase (P47989 whole entry): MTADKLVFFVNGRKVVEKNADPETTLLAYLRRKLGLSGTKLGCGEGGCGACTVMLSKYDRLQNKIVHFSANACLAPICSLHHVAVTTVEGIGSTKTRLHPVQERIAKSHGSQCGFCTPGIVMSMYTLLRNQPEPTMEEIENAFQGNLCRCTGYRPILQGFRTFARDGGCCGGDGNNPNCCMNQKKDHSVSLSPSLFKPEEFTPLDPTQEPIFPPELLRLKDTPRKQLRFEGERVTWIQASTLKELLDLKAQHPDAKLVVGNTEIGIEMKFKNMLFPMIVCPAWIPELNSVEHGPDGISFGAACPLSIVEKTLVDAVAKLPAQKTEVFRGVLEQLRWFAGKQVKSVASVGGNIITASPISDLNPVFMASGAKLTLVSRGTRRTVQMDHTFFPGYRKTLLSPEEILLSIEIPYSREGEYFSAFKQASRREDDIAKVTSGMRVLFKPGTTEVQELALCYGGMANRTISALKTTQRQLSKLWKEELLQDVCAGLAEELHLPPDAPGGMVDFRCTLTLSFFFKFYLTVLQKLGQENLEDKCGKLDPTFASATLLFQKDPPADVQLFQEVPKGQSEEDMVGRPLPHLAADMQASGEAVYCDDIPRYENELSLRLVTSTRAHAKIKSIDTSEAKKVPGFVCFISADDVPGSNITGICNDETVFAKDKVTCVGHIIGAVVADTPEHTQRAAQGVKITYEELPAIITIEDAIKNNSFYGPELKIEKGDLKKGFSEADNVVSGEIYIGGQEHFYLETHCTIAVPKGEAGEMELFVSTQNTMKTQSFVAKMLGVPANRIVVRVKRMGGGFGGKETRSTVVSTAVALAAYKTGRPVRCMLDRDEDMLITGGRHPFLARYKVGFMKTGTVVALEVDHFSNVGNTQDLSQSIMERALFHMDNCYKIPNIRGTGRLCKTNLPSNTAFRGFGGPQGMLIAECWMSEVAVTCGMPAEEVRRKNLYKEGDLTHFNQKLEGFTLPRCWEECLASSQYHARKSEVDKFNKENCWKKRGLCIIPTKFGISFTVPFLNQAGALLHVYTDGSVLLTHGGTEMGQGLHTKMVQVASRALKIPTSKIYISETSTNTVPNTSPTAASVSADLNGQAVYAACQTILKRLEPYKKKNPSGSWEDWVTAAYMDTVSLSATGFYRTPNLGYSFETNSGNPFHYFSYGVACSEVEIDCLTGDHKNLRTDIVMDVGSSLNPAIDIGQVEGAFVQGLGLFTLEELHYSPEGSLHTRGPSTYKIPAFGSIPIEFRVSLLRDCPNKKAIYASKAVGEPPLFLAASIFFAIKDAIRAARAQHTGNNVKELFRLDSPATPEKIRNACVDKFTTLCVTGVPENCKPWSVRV

Work on `O=C(O)CSc1nnc(Br)n1-c1ccc(C2CC2)c2ccccc12` yielded an IC50 of over 300 µM.
